# In patent US7087634B2, “Cyclic AMP-specific phosphodiesterase inhibitors” (ICOS Corporation, priority 1999, dated 2006):
# pEC50, pIC50: −log10 of the molar value. Read-outs that look alike come from different tables or passages of the source.
# What was measured:
# human recombinant PDE4 = target: T1, human recombinant PDE4 (Homo sapiens, UniProt Q07343); experiment: Inhibition of human recombinant PDE4 (charcoal separation PDE assay); assay type: biochemical; conditions: for IC50: PDE4 IC50 (μM)
# T1 construct: made in house; host or cells: Saccharomyces cerevisiae BJ2-54
# Protocol: The compounds of structural formula (I) were tested for an ability to inhibit PDE4. […] The IC50 value for compounds of structural formula (I) were determined using human recombinant PDE4.
# Phosphodiesterase activity of the preparations was determined as follows. […] In this assay, PDE activity converts [32P]cAMP or [32P]cGMP to the corresponding [32P]5′-AMP or [32P]5′-GMP in proportion to the amount of PDE activity present. The [32P]5′-AMP or [32P]5′-GMP then was quantitatively converted to free [32P]phosphate and unlabeled adenosine or guanosine by the action of snake venom 5′-nucleotidase. […] The assay was performed at 30° C. in a 100 μL reaction mixture containing (final concentrations) 40 mM Tris HCl (pH 8.0), 1 μM ZnSO4, 5 mM MgCl2, and 0.1 mg/mL bovine serum albumin (BSA). Alternatively, in assays assessing PDE1-specific activity, incubation mixtures further incorporated the use of 0.1 mM CaCl2 and 10 μg/mL calmodulin. PDE enzyme was present in quantities that yield <30% total hydrolysis of substrate (linear assay conditions). The assay was initiated by addition of substrate (1 mM [32P]cAMP or cGMP), and the mixture was incubated for 12 minutes. Seventy-five (75) μg of Crotalus atrox venom then was added, and the incubation was continued for 3 minutes (15 minutes total). The reaction was stopped by addition of 200 μL of activated charcoal (25 mg/mL suspension in 0.1 M NaH2PO4, pH 4). After centrifugation (750×g for 3 minutes) to sediment the charcoal, a sample of the supernatant was taken for radioactivity determination in a scintillation counter and the PDE activity was calculated.
# recombinant human PDE4 = conditions: background, reported value; read-out: reported IC50 with respect to recombinant human PDE4; cited from earlier work
# [1] = system: TNFα release from human peripheral blood lymphocytes; experiment: Lipopolysaccharide-stimulated TNFα release from human peripheral blood lymphocytes; assay type: cell-based; conditions: Lymphocyte; for EC50: Homo sapiens, read-out: PBL/TNFα EC50 (μM); for pEC50: LPS-stimulated TNFα release from human PBL, read-out: PBL/TNFα EC50
# Protocol: The compounds of structural formulae (I) and (II) were tested for an ability to reduce TNFα secretions in human peripheral blood lymphocytes. The ability of a compound to reduce TNFα secretion is related to the EC50 value for the compound (i.e., the effective concentration of the compound capable of inhibiting 50% of the total TNFα).
# To assess the ability of a compound to reduce TNFα secretion in human peripheral blood lymphocytes (PBL), the following tests were performed.
# Heparinized blood (approximately 30 mL) drawn from human volunteers was mixed 1:1 with Dulbecco's modified phosphate-buffered saline. This mixture was mixed 1:1 with HISTOPAQUE® and centrifuged at 1,500 rpm at room temperature without braking in the swinging bucket of a Beckman model TJ6 centrifuge. Erythrocytes were centrifuged to the bottom of the tubes, and serum remained at the surface of the tubes. A layer containing lymphocytes sedimented between the serum and HISTOPAQUE® layers, and was removed by aspiration to a fresh tube. The cells were quantified and adjusted to […] and a 100 μL aliquot is placed into the wells of a 96 well plate. Test compounds and RPMI media (Gibco/BRL Life Sciences) are added to each of the wells 15 minutes prior to addition of bacterial LPS ([…]). The mixture was allowed to incubate for 20 hours at 37° C. in a humidified chamber. The cells then were separated by centrifuging at 800 rpm for 5 minutes at room temperature. An aliquot of 180 μL of supernatant was transferred to a new plate for determination of TNFα concentration. TNFα protein in the cell supernatant fluids was measured using a commercially available enzyme-linked immunosorbent assay (ELISA) (CYTOSCREEN® Immunoassay Kit from Biosource International).
# (§1) The cell-based assay provided the following results for various compounds of the present invention. The EC50. values (i.e., effective concentration of the compound capable of inhibiting 50% of the total TNFα) illustrate the ability of the present compounds to inhibit LPS-stimulated TNFα release from human PBL.
# as §1, with “various pyrazole” for “various”, “EC50” for “EC50.”, “concentrations” for “concentration”, “peripheral blood lymphocytes.” for “PBL.”
# [2] = structure table, read-out: PDE4 IC50
# [3] = table with PBL/TNFα, read-out: PDE4 IC50
# T1 sequence (Q07343 whole entry): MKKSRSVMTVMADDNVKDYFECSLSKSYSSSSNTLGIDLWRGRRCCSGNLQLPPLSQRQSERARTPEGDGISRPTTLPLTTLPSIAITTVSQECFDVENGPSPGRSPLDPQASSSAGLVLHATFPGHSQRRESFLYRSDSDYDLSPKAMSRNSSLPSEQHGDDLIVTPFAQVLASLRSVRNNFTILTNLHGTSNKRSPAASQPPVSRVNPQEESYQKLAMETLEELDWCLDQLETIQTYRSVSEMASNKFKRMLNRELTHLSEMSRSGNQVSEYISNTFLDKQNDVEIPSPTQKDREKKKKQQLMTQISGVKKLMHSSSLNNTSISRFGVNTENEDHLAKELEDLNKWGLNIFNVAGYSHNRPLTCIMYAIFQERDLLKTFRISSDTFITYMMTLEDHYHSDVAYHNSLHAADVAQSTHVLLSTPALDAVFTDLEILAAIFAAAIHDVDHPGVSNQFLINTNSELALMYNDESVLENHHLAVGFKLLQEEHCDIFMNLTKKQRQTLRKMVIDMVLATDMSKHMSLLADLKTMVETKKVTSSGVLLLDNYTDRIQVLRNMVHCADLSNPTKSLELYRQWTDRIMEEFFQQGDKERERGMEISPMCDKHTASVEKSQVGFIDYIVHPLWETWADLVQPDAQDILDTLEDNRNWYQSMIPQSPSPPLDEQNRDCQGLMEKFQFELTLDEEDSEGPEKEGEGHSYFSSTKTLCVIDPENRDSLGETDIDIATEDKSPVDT
Structure (SMILES),pIC50 (human recombinant PDE4; [2]),other results
"CCOC(=O)c1cn(-c2ccccn2)nc1C [Example 26, 3-methyl-1-pyridin-2-yl-1H-pyrazole-4-carboxylic acid ethyl ester]",5.44,
"CCOC(=O)c1c(C)nn(-c2ccc(C)cc2)c1C [Example 4, 3,5-dimethyl-1-p-tolyl-1H-pyrazole-4-carboxylic acid ethyl ester]",5.40,
COC(=O)N1CC(c2ccc(OC)c(OC3CCCC3)c2)C(C)(C(C)=O)C1 (centres unmarked),,pIC50 (recombinant human PDE4): ~8.70
"Cc1nn(-c2ncccc2[N+](=O)[O-])c(C)c1C(=O)O [Example 16, 3,5-dimethyl-1-(3-nitropyridin-2-yl)-1H-pyrazole-4-carboxylic acid]",4.32,
"CCOC(=O)c1c(C)nn(-c2cccc(N)c2)c1C [Example 9, 1-(3-aminophenyl)-3,5-dimethyl-1H-pyrazole-4-carboxylic acid ethyl ester]",5.99,pIC50 (human recombinant PDE4; [3]): 6.00; EC50 [1]: 1.9 µM
"CCOC(=O)c1c(C)nn(C2CCCCC2)c1C [Example 19, 1-cyclohexyl-3,5-dimethyl-1H-pyrazole-4-carboxylic acid ethyl ester]",7.28,pIC50 (human recombinant PDE4; [3]): 7.28; pEC50 [1]: 6.28
"C/C(=N\O)c1cnn(-c2cc(C(F)(F)F)cc(C)n2)c1C [Example 32, 1-[5-Methyl-1-(6-methyl-4-trifluoromethyl-pyridin-2-yl)-1H-pyrazol-4-yl]-ethanone oxime]",4.17,
"COC(=O)c1cnn(-c2cc(C(F)(F)F)cc(C)n2)c1C(=O)C=CN(C)C [Example 29, 5-(3-Dimethylaminoacryloyl)-1-(6-methyl-4-trifluoromethylpyridin-2-yl)-1H-pyrazole-4-carboxylic acid methyl ester]",4.43,
CCOC(=O)c1c(C)nn(-c2ccc(N=Cc3ccccc3O)cc2)c1C [Example 38],,IC50 (human recombinant PDE4; structure table): 0.4 µM; IC50 (human recombinant PDE4; table with PBL/TNFα): 0.4 µM; EC50 [1]: 1 µM
"CCOC(=O)c1c(C)nn(-c2ccccc2N)c1C [Example 6, 3,5-dimethyl-1-(2-aminophenyl)-1H-Pyrazole-4-carboxylic acid ethyl ester]",5.95,
CCOC(=O)c1c(C)nn(-c2ccc(N=Cc3ccc(OC)cc3)cc2)c1C [Example 39],,IC50 (human recombinant PDE4; structure table): 0.69 µM; IC50 (human recombinant PDE4; table with PBL/TNFα): 0.69 µM; pEC50 [1]: 5.89
"Cc1nn(-c2ccccc2)c(C)c1C(=O)Nc1ccncc1 [Example 34, 3,5-Dimethyl-1-phenyl-1H-pyrazole-4-carboxylic acid pyridin-4-ylamide]",4.01,
"Cc1nn(-c2ccccc2)c(C)c1C(=O)Nc1ccccc1 [Example 36, 3,5-Dimethyl-1-phenyl-1H-pyrazole-4-carboxylic acid phenylamide]",3.85,
"CCOC(=O)c1c(C)nn(-c2ccccc2[N+](=O)[O-])c1C [Example 5, 3,5-dimethyl-1-(2-nitrophenyl)-1H-pyrazole-4-carboxylic acid ethyl ester]",6.19,
"Cc1nn(-c2ccccc2)c(C)c1C=O [Example 28, 3,5-Dimethyl-1-phenyl-1H-pyrazole-4-carboxaldehyde]",4.74,
"CCOC(=O)c1c(C)nn(-c2ccc(NC(=O)C(C)(C)C)cc2)c1C [Example 14, 1-[4-(2,2-dimethylpropionylamino)phenyl]-3,5-dimethyl-1H-pyrazole-4-carboxylic acid ethyl ester]",5.19,

Structure (SMILES),pIC50 (human recombinant PDE4; [2]),other results
"COC(=O)c1cnn(-c2cc(C(F)(F)F)cc(C)n2)c1C(C)=O [Example 33, 5-Acetyl-1-(6-methyl-4-trifluoromethylpyridin-2-yl)-1H-pyrazole-4-carboxylic acid methyl ester]",4.05,
"Cc1nn(-c2ccc(N)cc2)c(C)c1C(=O)O [Example 18, 1-(4-aminophenyl)-3,5-dimethyl-1H-pyrazole-4-carboxylic acid]",3.76,
"CCOC(=O)c1c(C)nn(-c2ccc([N+](=O)[O-])cn2)c1C [Example 7, 3,5-dimethyl-1-(5-nitropyridin-2-yl)-1H-pyrazole-4-carboxylic acid ethyl ester]",,"pIC50 (human recombinant PDE4; read-out: PDE4 IC50, structure table): 4.89"
"CCOC(=O)c1c(C)nn(-c2ccc([N+](=O)[O-])cn2)c1C [Example 17, 3,5-dimethyl-1-(5-nitropyridin-2-yl)-1H-pyrazole-4-carboxylic acid ethyl ester]",4.24,
"CCOC(=O)c1cnn(-c2ncc(C(F)(F)F)cc2Cl)c1C [Example 31, 1-(3-Chloro-5-trifluoromethylpyridin-2-yl)-5-methyl-1H-pyrazole-4-carboxylic acid ethyl ester]",4.20,
"CCOC(=O)c1c(C)nn(-c2ccc(N)cc2)c1C [Example 11, 3,5-dimethyl-1-(4-aminophenyl)-1H-pyrazole-4-carboxylic acid ethyl ester]",6.52,pIC50 (human recombinant PDE4; [3]): 6.52; pEC50 [1]: 6.00
"CCOC(=O)c1cnn(-c2c(Cl)cc(Cl)cc2Cl)c1COC [Example 35, 5-Methoxymethyl-1-(2,4,6-trichlorophenyl)-1H-pyrazole-4-carboxylic acid ethyl ester]",3.88,
"CCOC(=O)c1c(C)nn(-c2ccccc2)c1C [Example 3, 3,5-dimethyl-1-phenyl-1H-pyrazole-4-carboxylic acid ethyl ester]",6.51,pIC50 (human recombinant PDE4; [3]): 6.51; EC50 [1]: 1.8 µM
"CCOC(=O)c1cnn(-c2ccc(N)cc2)c1C(F)(F)F [Example 27, 1-(4-aminophenyl)-5-trifluoromethyl-1H-pyrazole-4-carboxylic acid ethyl ester]",5.44,
"COC(=O)c1cnn(-c2ccccn2)c1C(C)=O [Example 37, 5-Acetyl-1-pyridin-2-yl-1H-pyrazole-4-carboxylic acid methyl ester]",3.74,
"CCOC(=O)c1c(C)nn(-c2ncccc2[N+](=O)[O-])c1C [Example 10, 3,5-dimethyl-1-(3-nitropyridin-2-yl)-1H-pyrazole-4-carboxylic acid ethyl ester]",6.70,pIC50 (human recombinant PDE4; [3]): 6.70; pEC50 [1]: 5.70
"CCOC(=O)c1cnn(-c2ccc([N+](=O)[O-])cc2)c1C(F)(F)F [Example 30, 1-(4-Nitrophenyl)-5-trifluoromethyl-1H-pyrazole-4-carboxylic acid ethyl ester]",4.34,
"Cc1ccc(OC(=O)c2c(C)nn(-c3ccccc3)c2C)cc1 [Example 15, 3,5-dimethyl-1-phenyl-1H-pyrazole-4-carboxylic acid p-tolyl ester]",4.44,
"CCOC(=O)c1c(C)nn(-c2ccc(NS(=O)(=O)c3ccc(OC)cc3)cc2)c1C [Example 13, 1-[4-(4-methoxybenzenesulfonylamino)phenyl]-3,5-dimethyl-1H-pyrazole-4-carboxylic acid ethyl ester]",,IC50 (human recombinant PDE4; structure table): 1.88 µM
CCOC(=O)c1c(C)nn(-c2ccc(NCc3ccccc3O)cc2)c1C [Example 40],,IC50 (human recombinant PDE4; structure table): 0.92 µM; IC50 (human recombinant PDE4; table with PBL/TNFα): 0.92 µM; EC50 [1]: 6.2 µM
"CCOC(=O)c1c(C)nn(-c2ncccc2N)c1C [Example 12, 1-(3-aminopyridin-2-yl)-3,5-dimethyl-1H-pyrazole-4-carboxylic acid ethyl ester]",6.03,pIC50 (human recombinant PDE4; [3]): 6.03; EC50 [1]: 2.6 µM
